Laboratory results reported in patent US20240182423A1, “4-AMINOQUINOLINES FOR TREATMENT OF MULTIDRUG RESISTANT MALARIA” (United States Government as represented by the Department …, priority 2022, published 2024).
Where two headings read alike, the source gives them in different places.

Experiments:
[1] = system: drug sensitive D6 clone of P. falciparum; assay: SYBR Green I fluorescence-based antiplasmodial assay, D6; assay type: cell-based, Plasmodium falciparum; settings: P. falciparum D6, 72 hours
Description: (§1) Laboratory strains of P. falciparum were cultured in human erythrocytes by standard methods (Trager, W.; Jensen, J. B. Human malaria parasites in continuous culture. Science 1976, 193 (4254), 673-675. DOI: 10.1126/science.781840 from NLM Medline). The parasites were grown in culture medium with fresh human erythrocytes maintained at 2% hematocrit at 37° C. in low-oxygen conditions (5% 02, 5% CO2, 90% N2). The culture medium used was RPMI-1640 with 25 mg/L gentamicin sulfate, 45 mg/L Albumax II, 10 mM glucose, and 25 mM HEPES buffer (Smilkstein et al., Simple and inexpensive fluorescence-based technique for high-throughput antimalarial drug screening. Antimicrob Agents Chemother 2004, 48 (5), 1803-1806. DOI: 10.1128/aac.48.5.1803-1806.2004). Cultures were maintained at less than 10% parasitemia by transfer of infected cells to fresh erythrocytes and culture medium every 3 or 4 days. […]
(§2) In vitro antimalarial activity was measured using the SYBR Green I fluorescence-based assay. […] Experiments were set up in quadruplicate in 96-well plates with a 100 μL total volume per well with 2% hematocrit, 0.2% parasitemia, and drug dilutions between 0.25 and 250 nM in complete culture medium described above. The plates were incubated at 37° C. in low-oxygen conditions described previously for 72 hours, at which point 100 μL of fluorescent dye-detergent mixture (0.2 μL SYBR Green I: 1 mL lysing buffer) was added and the plates incubated in the dark at room temperature for one hour. After incubation with the fluorescent dye, a 96-well plate reader with excitation wavelength set at 497 nm and emission at 520 nm, was used to measure fluorescence of each well.
(§3) Each of the ADC derivatives was tested for antiplasmodial activity against the drug sensitive D6 clone of P. falciparum as well as one or more of the following multidrug resistant strains: Dd2 or 7G8. The method used for antiplasmodial testing is known as the SyBr Green assay and it was described by us in 2004 (Smilkstein et al., Antimicrob Agents Chemother 2004, 48 (5), 1803-1806).

[2] = system: multi-drug resistant (Dd2) P. falciparum; assay: SYBR Green I fluorescence-based antiplasmodial assay, Dd2; assay type: cell-based, Plasmodium falciparum; settings: for IC50: P. falciparum Dd2, 72 hours; for cross resistance, Dd2 vs D6: ratio of IC50 in Dd2 and D6 strains
Description: as §1, §2, §3

[3] = Metabolic stability in pooled murine liver microsomes; assay type: in vitro ADME; settings: for half-life: mouse
Description: (§4) In vivo efficiency: ADCs antiplasmodial efficiency (ED50, ED90) assessed in murine malaria model against P. yoelii (Py). Metabolic stability: ADCs were assessed for metabolic stability (t1/2, Clint) in pooled murine liver microsomes. Referring to Table 1, ND=not detected.

[4] = HepG2 cytotoxicity assay (resazurin); assay type: cell-based; settings: human, HepG2, 24 h drug then 24 h drug-free, read-out: CC50 v HepG2
Description: Final compounds were assessed for mammalian cytotoxicity using an immortalized human liver carcinoma cell line (HepG2) using previously described methods.^1 In short, final compounds were prepared in DMSO as 10 mM stock solutions. […] To 96-well flat-bottomed tissue culture plates, HepG2 cells were added at 2×10 4 density with an additional 160 μL of complete culture media per well and were incubated overnight at 37° C. to allow for adherence. Compound stocks aliquots were applied as 40 μL solutions in complete media to each well in a serial dilution series that ranged from […] as duplicates. A 10 mM DMSO stock of mefloquine was used as a positive control. […] 20 μL of resazurin (Alamar Blue) in PBS buffer was added to each well to a final concentration of 10 μM, and the plates were incubated for 3 h. Fluorescence was measured at 560 nm excitation and 590 nm emission bands using a Spectramax iD3 plate reader. Fluorescence output values were normalized to the untreated control wells and plotted against the logarithm of drug concentration.

[5] = system: Plasmodium yoelii; assay: In vivo efficacy against murine malaria, modified 4-day test; settings: for ED50 (mg/kg/d) vs Py / ED90 (mg/kg/d) vs Py: P. yoelii in mice, oral once daily for 4 days, PEG-400
Description: as §4
Selected ADC derivatives were also tested in vivo in mice using the standard 4-day test protocol as described previously. For this work the rodent malaria parasite Plasmodium yoelii was used and the mice were CF1 female. Briefly, animals were inoculated with 35,000 parasitized red blood cells (obtained from a donor animal) on Day 0 of the experiment. Beginning on the next day (Day 1) and again on the 3 succeeding days (Days 2, 3, and 4) the animals received oral doses of the test agent dissolved in the dosing vehicle PEG-400. On Day 5 a blood sample was taken from the tail vein and examined microscopically for the presence of parasites using Giemsa stained and methanol fixed blood smears.
The in vivo efficacy of selected ADC derivatives was determined against blood-stage Plasmodium yoelii using a modified 4-day test. Female mice (Charles River Laboratories) were infected intravenously with 35,000 P. yoelii parasitized erythrocytes from a donor animal (Kenya MR4 MRA-428). […] Five days after inoculation, percent parasitemia was calculated by examination of Giemsa-stained blood smears.

[6] = Pharmacokinetic study in mice; assay type: in vivo
[7] = Plasmodium falciparum, D6, 72 h
[8] = Plasmodium falciparum, DD2, 72 h
[9] = mouse, plasma, PO 5 mg/kg in PEG400, male CD1 mice
[10] = mouse, plasma, PO 5 mg/kg in PEG400, male CD1 mice, non-compartmental

| SMILES | IC50 [1, 7] [nM] | IC50 [2, 8] [nM] | CIint [3] [mL/min/kg] | half-life [3] [min] | CC50 at 24 h ([4]; HepG2 cells) [µM] | also measured |
| --- | --- | --- | --- | --- | --- | --- |
| Clc1ccc2c(Nc3ccc(N4CCN(Cc5ccccc5)CC4)cc3)ccnc2c1 [ADC-008, N-(4-(4-benzylpiperazin-1-yl)phenyl)-7-chloroquinolin-4-amine] | 16.1 | 15.9 | 391.9 | 13.9 | > 200 | cross resistance, Dd2 vs D6 [2]: Equipotency |
| CCN1CCN(c2ccc(Nc3ccnc4cc(Cl)ccc34)cc2)CC1 [ADC-009, 7-chloro-N-(4-(4-ethylpiperazin-1-yl)phenyl)quinolin-4-amine] | ~13 | ~13 | 2936 | 1.86 | > 200 | IC50 [1]: 13.2 nM; IC50 [2]: 12.7 nM; ED50 (mg/kg/d) vs Py [5]: 1.5 mg/kg/day; ED90 (mg/kg/d) vs Py [5]: 8.4 mg/kg/day |
| CN1CCN(c2ccc(Nc3ccnc4cc(Cl)ccc34)cc2)CC1 [ADC-010, 7-chloro-N-(4-(4-methylpiperazin-1-yl)phenyl)quinolin-4-amine] | 13.3 | 14 | 3784 | 1.44 | 185 | cross resistance, Dd2 vs D6 [2]: Equipotency |
| Clc1ccc2c(Nc3ccc(N4CCNCC4)cc3)ccnc2c1 [ADC-011, 7-chloro-N-(4-(piperazin-1-yl)phenyl)quinolin-4-amine] | 21.8 | 65.8 |  |  | 54 |  |
| CC(C)(C)OC(=O)N1CCN(c2ccc(Nc3ccnc4cc(Cl)ccc34)cc2)CC1 [ADC-012, tert-butyl 4-(4-((7-chloroquinolin-4-yl)amino)phenyl)piperazine-1-carboxylate] |  |  |  |  | > 200 |  |
| Clc1ccc2c(Nc3ccc(N4CCN(C5CC5)CC4)cc3)ccnc2c1 [ADC-013, 7-chloro-N-(4-(4-cyclopropylpiperazin-1-yl)phenyl)quinolin-4-amine] | 39.2 | 84.4 |  |  | > 200 |  |
| CCN1CCN(c2ccc(Nc3ccnc4ccc(Cl)cc34)cc2)CC1 [ADC-014, 6-chloro-N-(4-(4-ethylpiperazin-1-yl)phenyl)quinolin-4-amine] | 69.8 | 66 |  |  | > 200 | cross resistance, Dd2 vs D6 [2]: Equipotency |
| Clc1ccc2c(Nc3ccc(C4CCNCC4)cc3)ccnc2c1 [ADC-015, 7-chloro-N-(4-(piperidin-4-yl)phenyl)quinolin-4-amine] | 10.2 | 75.2 |  |  | 58 |  |
| CCN1CCN(c2ccc(Nc3ccnc4cc(C(F)(F)F)ccc34)cc2)CC1 [ADC-024, N-(4-(4-ethylpiperazin-1-yl)phenyl)-7-(trifluoromethyl)quinolin-4-amine] |  |  |  |  | > 200 |  |

Continued, in another order:

| IC50 [1, 7] [nM] | IC50 [2, 8] [nM] | CIint [3] [mL/min/kg] | half-life [3] [min] | SMILES | CC50 at 24 h ([4]; HepG2 cells) [µM] | also measured |
| --- | --- | --- | --- | --- | --- | --- |
| 5.18 | 9.17 | 0.00 |  | CC(C)(C)N1CCN(c2ccc(Nc3ccnc4cc(Cl)ccc34)cc2)CC1 [ADC-017, N-(4-(4-(tert-butyl)piperazin-1-yl)phenyl)-7-chloroquinolin-4-amine] | > 200 | ED50 (mg/kg/d) vs Py [5]: 4.0 mg/kg/day; ED90 (mg/kg/d) vs Py [5]: 7.6 mg/kg/day; T1/2 (min) [3]: ∞ |
| 43.3 | 110 |  |  | FC(F)(F)c1ccc(N2CCN(c3ccc(Nc4ccnc5cc(Cl)ccc45)cc3)CC2)cc1 [ADC-018, 7-chloro-N-(4-(4-(4-(trifluoromethyl)phenyl)piperazin-1-yl)phenyl)quinolin-4-amine] | > 200 |  |
| 4.56 | 13.4 | 496.7 | 11 | CCN1CCC(c2ccc(Nc3ccnc4cc(Cl)ccc34)cc2)CC1 [ADC-020, 7-chloro-N-(4-(1-ethylpiperidin-4-yl)phenyl)quinolin-4-amine] | 111 | ED50 (mg/kg/d) vs Py [5]: 1.8 mg/kg/day; ED90 (mg/kg/d) vs Py [5]: 13.4 mg/kg/day |
| 4.94 | 11.6 | 123.6 | 44.1 | CC(C)N1CCC(c2ccc(Nc3ccnc4cc(Cl)ccc34)cc2)CC1 [ADC-021, 7-chloro-N-(4-(1-isopropylpiperidin-4-yl)phenyl)quinolin-4-amine] | > 200 | ED50 (mg/kg/d) vs Py [5]: 1.1 mg/kg/day; ED90 (mg/kg/d) vs Py [5]: 4.1 mg/kg/day; ED50 ([5]; P. yoelii, CF1 female mice, 4-day test, oral in PEG-400): 1.1 mg/kg/day |
| 10.3 | 19.2 |  |  | CCN1CCN(c2ccc(Nc3ccnc4cc(Br)ccc34)cc2)CC1 [ADC-025, 7-bromo-N-(4-(4-ethylpiperazin-1-yl)phenyl)quinolin-4-amine] | 48 |  |
| 9.25 | 19.3 | 78.0 | 70 | CCCN1CCC(c2ccc(Nc3ccnc4cc(Cl)ccc34)cc2)CC1 [ADC-026, 7-chloro-N-(4-(1-propylpiperidin-4-yl)phenyl)quinolin-4-amine] | > 200 |  |
| 9.03 | 20.4 | 129.7 | 42.1 | CCCCN1CCC(c2ccc(Nc3ccnc4cc(Cl)ccc34)cc2)CC1 [ADC-027, N-(4-(1-butylpiperidin-4-yl)phenyl)-7-chloroquinolin-4-amine] | > 200 |  |
| 7.9 | 17.4 |  |  | CC(C)CN1CCC(c2ccc(Nc3ccnc4cc(Cl)ccc34)cc2)CC1 [ADC-028, 7-chloro-N-(4-(1-isobutylpiperidin-4-yl)phenyl)quinolin-4-amine] |  | CC50 at 24 h [4]: > 200 µM; MRTIast ([6]; PO 5 mg/kg in PEG400, male CD1 mice): 19.3 h; AUC(0-inf) [6, 9]: 3160 ng·h/mL; AUC(0-t) [6, 9]: 2360 ng·h/mL; MRT inf [6, 9]: 35.6 h; Cmax [6, 10]: 67.7 ng/mL; Tmax [6, 10]: 1 h; half-life ([6]; mouse, plasma, PO 5 mg/kg, male CD1 mice, Rsq_adjusted 0.829 (<0.9: might not be accurately estimated)): 1510 min |
| 13.8 | 19 | 98.3 | 55.5 | CCC(C)N1CCC(c2ccc(Nc3ccnc4cc(Cl)ccc34)cc2)CC1 (stereo not shown) [ADC-029, N-(4-(1-(sec-butyl)piperidin-4-yl)phenyl)-7-chloroquinolin-4-amine] | > 200 |  |
| 9.79 | 17.8 | 391.9 | 13.9 | CC(C)CN1CCN(c2ccc(Nc3ccnc4cc(Cl)ccc34)cc2)CC1 [ADC-030, 7-chloro-N-(4-(4-isobutylpiperazin-1-yl)phenyl)quinolin-4-amine] | > 200 |  |
